Where two headings read alike, the source gives them in different places.
Columns and labels:
[1] = system: LNCaP cells; conditions: 10 ng/ml
Description: FIG. 12A Evaluation of cell death and caspase activation in RWPE-1 cells infected with TW3′ or decoy15/16 vectors and treated with 10 ng/ml of docetaxel. Caspase activation was measured after 4 h of treatment. FIG. 12B Evaluation of cell death and caspase activation in LNCaP cells infected with TW or TWmiR-15a/miR-16 vectors and exposed to 10 ng/ml of docetaxel. FIG. 12C-D Evaluation of cell death and caspase activation in miR15a/miR-16 defective or non-defective (normal) primary tumor cells transduced as indicated and treated with 10 ng/ml docetaxel. FIG. 12C. Cell death was measured after 24 h exposure to docetaxel. FIG. 12D. Caspase activation in LNCaP and primary tumor cells was measured after 18 h of treatment. Data are mean±s.d. of at least three independent experiments for each group.
Cell death was evaluated by trypan blue staining, PI staining and flow cytometry analysis, Apo-percentage assay (Biocolor) and Cell Titer kit (Promega). Caspase activation was detected using APO-one Homogeneous Caspase3/7 Assay Kit (Promega).

[2] = system: Wnt3a 3′UTR; assay: Luciferase reporter assay, pGL3-3′UTR cotransfected with miR oligos; assay type: cell-based, human; conditions: K562 cells, 25 pmol oligo, 48 hours post-transfection, vs scrambled oligos
Description: (§1) 3′UTR segments of Bcl-2, cyclin D1 and Wnt3a were amplified by PCR from normal human genomic DNA and subcloned into the 3′UTR of the firefly luciferase coding sequence into pGL3-Promoter (Promega), see Supplementary Methods. Then K562 (5×10^4 cells per well) were transfected using Lipofectamine 2000 (Invitrogen) following the manufacturer's instructions. The transfection mix included: (a) 0.8 μg of pGL3-3′UTR plasmid and 50 ng of the control vector pRL-TK (Promega); (b) 25 pmol of either non-targeting RNA control (scrambled) or miR-15a or miR-16 oligonucleotides (Ambion). Forty-eight hours post-transfection, firefly and renilla luciferase activities were measured using the Dual Luciferase Assay kit (Promega). Transfection efficiencies were normalized by calculating the ratio of firefly to renilla. For each construct the relative luciferase activities were calculated by dividing the values obtained in the transfection of miR-15a and miR-16 by those of miR scrambled. Each experiment was performed in duplicate and replicated five times.
(§2) The miR-15a/miR-16 target genes UTRs were cloned in the Xba I site of pGL3 promoter, immediately downstream from the stop codon of the luciferase coding sequence. For Bcl-2, a 3′UTR of 1329 bp fragment was amplified, corresponding to residues 2446-3774 of Genbank Acc No M14745. For cyclin D1 3′UTR, a 1036 bp fragment was amplified ([…] of No NM_053056). For Wnt3a 3′UTR, a 906 bp fragment was amplified (residues 2026-2932 of No NM_033131.2). For 3′UTR cyclin D1 and Wnt3a mutagenesis, a five nucleotide mutation was inserted in the “seed” sequences interacting with miR-15a and miR-16 (see FIGS. 13A-C). Modified and HPLC purified oligonucleotides (Invitrogen) were used for amplification and mutagenesis, performed with Pfu enzyme following the in vitro mutagenesis kit protocol (Invitrogen). Transfection efficiencies of luciferase assays were normalized by calculating the ratio firefly/renilla. For each construct the relative luciferase activities were obtained by dividing the values obtained in the transfection of miR-15a and miR-16 by those of the non targeting miR scrambled. Each experiment was performed in duplicate and replicated five times.
(§3) To validate our targets, we subcloned the 3′UTR of these genes at the 3′ of the cDNA encoding luciferase in an expression construct and performed cotransfection experiments with miR-15a/miR-16. We narrowed our analysis to 1 kb regions harbouring the putative miR-15a/miR-16 target sites. The Bcl-2 3′UTR was tested in parallel as positive control. Luciferase assay was performed by cotransfecting pGL3-3′UTR vectors along with synthetic miR-15a, miR-16 and a control miR with a scrambled sequence.

[3] = system: cyclin D1 3′UTR; assay: as above; assay type: cell-based, human; conditions: K562 cells, 25 pmol oligo, 48 hours post-transfection, vs scrambled oligos
Description: as §1, §2, §3

[4] = system: Bcl-2 3′UTR; assay: Luciferase reporter assay, pGL3-3′UTR cotransfected with miR oligos (positive control); assay type: cell-based, human; conditions: K562 cells, 25 pmol oligo, 48 hours post-transfection, vs scrambled oligos
Description: as §1
The miR-15a/miR-16 target genes UTRs were cloned in the Xba I site of pGL3 promoter, immediately downstream from the stop codon of the luciferase coding sequence. For Bcl-2, a 3′UTR of 1329 bp fragment was amplified, corresponding to residues 2446-3774 of Genbank Acc No M14745. […]

[5] = system: Pim-1 UTR; assay: Luciferase reporter assay, pGL3-3′UTR cotransfected with miR oligos; assay type: cell-based, human; conditions: K562 cells, 48 hours post-transfection, vs scrambled oligos

CC(=O)O[C@@]12CO[C@@H]1C[C@H](O)[C@@]1(C)C(=O)[C@H](O)C3=C(C)[C@@H](OC(=O)[C@H](O)[C@@H](NC(=O)OC(C)(C)C)c4ccccc4)C[C@@](O)([C@@H](OC(=O)c4ccccc4)[C@H]21)C3(C)C [docetaxel]
Cytotoxic activity of docetaxel ([1]; empty vector-transduced LNCaP cells): scarcely sensitive | Cytotoxic activity of docetaxel ([1]; miR-15a/miR-16 reconstituted LNCaP cells): massively killed

miR-15a: mature miR 15, SEQ ID NO 4, 5′-UAGCAGCACAUAAUGGUUUGUG-3′; synthetic oligonucleotide (Ambion) in reporter assays (listed as RNA, chemistry not given here; listed as Homo sapiens)
Luciferase reporter activity [2]: consistent reduction in reporter activity | Luciferase reporter activity [3]: consistent reduction in reporter activity | Luciferase reporter activity [4]: consistent reduction in reporter activity | Luciferase reporter activity [5]: non-targeted region

miR-16: mature miR 16, SEQ ID NO. 5, 5′-UAGCAGCACGUAAAUAUUGGCG-3′; synthetic oligonucleotide (Ambion) in reporter assays (listed as RNA, chemistry not given here; listed as Homo sapiens)
Luciferase reporter activity [2]: consistent reduction in reporter activity | Luciferase reporter activity [3]: consistent reduction in reporter activity | Luciferase reporter activity [4]: consistent reduction in reporter activity | Luciferase reporter activity [5]: non-targeted region
